# From US7459481B2, “Stimulation of CPT-1 as a means to reduce weight” (The Johns Hopkins University School of Medicine Licensing …, priority 2002, dated 2008)
# Assays:
# [1] = system: 3T3-L1 adipocytes; assay: Total cellular ATP in differentiated 3T3-L1 adipocytes; format: cell-based, mouse; conditions: 20 μg/ml or greater, 2 hours, FIG. 7
# Method: 1×10^5 MCF-7 cells were plated in 96 well plates. Cells were treated with C75 or vehicle. After 2 hours, ATP was measured using a luciferase assay using the ATP Bioluminescence Kit CLS II (Roche) following the manufacturer's protocol. Plates were read by a Perkin Elmer Wallac Victor^2 1420 luminometer. […] Similar results were obtained after 1 hr incubation with C75. Thus, cellular energy production increased as a result of C75 increasing fatty acid oxidation.
# To expand the study of effects of C75 on fatty acid metabolism beyond cancer cell lines to normal adipocytes, differentiated (non-transformed) mouse NIH 3T3-L1 adipocytes were used in assays similar to those performed with the MCF-7 cells. 3T3-L1 cells were obtained from the American Type Culture Collection, and cells were cultured in DMEM with high glucose (4.5 g/l ) (Gibco 12100-046) with 10% fetal calf serum and Biotin (Sigma B-4639) 0.008 g/L. Differentiation was initiated three days after the cells were confluent, when the standard culture medium was replaced with differentiation medium. […] The differentiated cells were ready to be used for experiments in 7-10 days.
# C75 increased CPT-1 activity and fatty acid metabolism in the NIH 3T3-L1 cells differentiated into adipocytes. […] CPT-1 activity, fatty acid oxidation, and total cellular ATP were measured as described in Examples 2, 1, and 4. […]
# [2] = target: T1, CPT-1 (Homo sapiens, UniProt P50416); assay: CPT-1 activity assay in MCF-7 cells; format: cell-based
# T1 construct: endogenous in cells; host or cells: MCF-7 human breast cancer cells
# T1 sequence (P50416 1-773): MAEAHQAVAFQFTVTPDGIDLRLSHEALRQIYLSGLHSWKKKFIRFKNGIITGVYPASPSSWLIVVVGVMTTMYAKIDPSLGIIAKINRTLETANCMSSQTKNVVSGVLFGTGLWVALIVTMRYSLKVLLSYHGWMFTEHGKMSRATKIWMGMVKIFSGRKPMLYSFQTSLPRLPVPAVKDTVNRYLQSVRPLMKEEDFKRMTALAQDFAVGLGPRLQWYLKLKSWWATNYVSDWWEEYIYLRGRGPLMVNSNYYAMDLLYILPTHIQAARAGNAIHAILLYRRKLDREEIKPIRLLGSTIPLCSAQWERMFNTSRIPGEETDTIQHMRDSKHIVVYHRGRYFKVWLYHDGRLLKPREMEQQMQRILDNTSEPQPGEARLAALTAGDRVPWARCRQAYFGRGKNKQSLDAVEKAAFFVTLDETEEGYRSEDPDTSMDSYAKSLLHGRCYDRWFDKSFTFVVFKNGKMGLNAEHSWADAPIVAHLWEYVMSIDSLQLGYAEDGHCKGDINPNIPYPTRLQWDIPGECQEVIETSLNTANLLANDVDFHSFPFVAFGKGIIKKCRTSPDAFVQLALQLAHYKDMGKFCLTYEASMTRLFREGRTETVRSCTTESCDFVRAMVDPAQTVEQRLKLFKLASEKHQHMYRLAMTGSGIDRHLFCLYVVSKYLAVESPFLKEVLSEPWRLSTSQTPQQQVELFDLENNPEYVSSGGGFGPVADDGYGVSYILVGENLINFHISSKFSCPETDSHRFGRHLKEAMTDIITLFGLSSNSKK
# Method: CPT-1 activity was assayed in MCF-7 cells by the following published procedure: MCF-7 cells were plated in DMEM with 10% fetal bovine serum at 10^6 cells in 24-well plates in triplicate. Following overnight incubation at 37° C., the medium was removed and replaced with 700 μl of assay medium consisting of: 50 mM imidazole, 70 mM KCl, 80 mM sucrose, 1 mM EGTA, 2 mM MgCl2, 1 mM DTT, 1 mM KCN, 1 mM ATP, 0.1% fatty acid free bovine serum albumin, 70 μM palmitoyl-CoA, 0.25 μCi [methyl-^14C]L-carnitine, 40 μg digitonin with or without 20 μM malonyl-CoA. After incubation for 6 minutes at 37° C., the reaction was stopped by the addition of 500 μl of ice-cold 4 M perchloric acid. Cells were then harvested and centrifuged at 13,000×g for 5 min. The pellet was washed with 500 μl ice cold 2 mM perchloric acid and centrifuged again. The resulting pellet was resuspended in 800 μl dH2O and extracted with 150 μl of butanol. The butanol phase was counted by liquid scintillation and represents the acylcarnitine derivative.
# MCF-7 cells were treated with C75 at 10 or 20 μg/mL for 1 hr before CPT-1 activity was assayed. The assay was performed with the C75 and malonyl-CoA concentrations indicated (“M” indicates malonyl-CoA at 20 uM). Malonyl-CoA treatment alone caused a 46% reduction in CPT-1 activity similar to the previous experiment (see FIG. 2; p=0.02, two-tailed t-test, Prism 3.0). The level of malonyl-CoA inhibition of the CPT-1 activity is consistent with the activity of the liver isoform of CPT-1 in MCF-7 cells. The Ki of malonyl-CoA for the liver isoform of CPT-1 is ˜7 μM while the Ki for the muscle isoform of CPT-1 is 0.07 μM. Thus, MCF-7 cells express predominantly the liver isoform of CPT-1 (consistent with the immunoblot analysis).
# FAS activity was measured by monitoring the malonyl-CoA dependent oxidation of NADPH spectrophotometrically at OD340 in 96-well plates, as described in International Patent Publication WO 2004/005277. The IC50 for the compounds against FAS was determined by plotting the change in OD340 against time for each inhibitor concentration tested and determining the rate of change by linear regression. The concentration of a particular compound yielding 50% inhibition of the rate for FAS in the absence of the compound is the IC50. Stimulation of CPT-1 activity was measured as described in Example 2, except the cells were preincubated with the compound for 2 hours at the concentrations indicated in the table. Stimulation of Fatty acid oxidation was determined as described in Example 1 for cells preincubated with the compounds at the concentrations indicated in the table.
structure (smiles),measurement,setting,value
C=C1C(=O)OC(CCCCCCCC)C1C(=O)O (stereo not shown) [Compound C75],levels of ATP,[1],significantly increased
same,CPT-1 Stimulation (% Control),"[2]; 20 μg/mL, cells preincubated 2 hours",125 % Control
same,"CPT-1 activity, % of control","[2]; MCF-7, 20 μg/ml 1 hr before assay, FIG. 4",166 % of control
same,"CPT-1 activity, % of control","[2]; MCF-7, 20 μg/ml for one hour before assay, no C75 in the assay buffer, FIG. 3",158 % of control
same,CPT-1 stimulation after C75 removed from buffer and malonyl-CoA 20 μM added,"[2]; MCF-7, C75 20 μg/ml one hour pretreatment, FIG. 3",stimulatory activity is lost
same,difference in CPT-1 activity between C75 and C75 plus malonyl-CoA,"[2]; MCF-7, C75 10 or 20 μg/mL 1 hr, malonyl-CoA 20 uM, FIG. 2",no statistically significant difference
same,stimulated CPT-I activity,[2]; MCF-7 cells in vitro,150-160%
